The assay concerns the target PD-1/PD-L1 (Homo sapiens (Human), UniProt Q9NZQ7). The assay can be described thus: PD-1/PD-L1 Homogeneous Time-Resolved Fluorescence (HTRF) Binding Assay. Conditions: recombinant human PD-1 (3 nM) and PD-L1 (10 nM), 25° C., PBS pH 7.4. The procedure, abridged: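 Fc-tagged human PD-1 (25-167, 3 nM) and His-tagged PD-L1 (19-238, 10 nM) preincubated with inhibitor 40 min in PBS pH 7.4, 0.05% Tween-20, 0.1% BSA, 1% DMSO, 25 °C. Binding detected by HTRF (Eu anti-IgG/APC anti-His, 665/620 nm) after 60 min; IC50 from percent control activity.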

PD-1/PD-L1, sequence (Q9NZQ7 19-238): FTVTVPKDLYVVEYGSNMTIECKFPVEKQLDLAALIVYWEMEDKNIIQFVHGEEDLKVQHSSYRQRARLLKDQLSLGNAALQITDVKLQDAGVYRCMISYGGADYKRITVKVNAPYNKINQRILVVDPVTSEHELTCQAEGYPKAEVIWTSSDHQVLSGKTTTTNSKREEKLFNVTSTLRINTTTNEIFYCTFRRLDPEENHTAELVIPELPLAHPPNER

Consider `Cc1c(Nc2nccc3cc(CN[C@@H](C)CO)cnc23)cccc1-c1cccc(-c2nc3cc(CN4CC[C@@H](C(=O)O)C4)cc(C#N)c3o2)c1C` [Example 257, (R)-1-((7-cyano-2-(3′-(3-(((S)-1-hydroxypropan-2-ylamino)methyl)-1,7-naphthyridin-8-ylamino)-2,2′-dimethylbiphenyl-3-yl)benzo[d]oxazol-5-yl)methyl)pyrrolidine-3-carboxylic acid], for which the IC50 (commonly the midpoint of a concentration-inhibition curve) was no more than 10 nM.
On to `Cc1c(Nc2nccc3cc(CN4CC[C@H](O)C4)cnc23)cccc1-c1cccc(-c2nc3cc(CN4CC[C@H](C(=O)O)C4)cc(Cl)c3o2)c1C` [Example 17, (S)-1-((7-chloro-2-(3′-(3-(((S)-3-hydroxypyrrolidin-1-yl)methyl)-1,7-naphthyridin-8-ylamino)-2,2′-dimethylbiphenyl-3-yl)benzo[d]oxazol-5-yl)methyl)pyrrolidine-3-carboxylic acid], for which the IC50 was no more than 10 nM.
To `Cc1c(-c2nc3cc(CN4CC(C(=O)O)C4)cc(C#N)c3o2)cccc1-c1cccc(-n2cc3c(n2)CN(C(C)C)CC3)c1Cl` [Example 239, 1-((2-(2′-chloro-3′-(6-isopropyl-4,5,6,7-tetrahydro-2H-pyrazolo[3,4-c]pyridin-2-yl)-2-methylbiphenyl-3-yl)-7-cyanobenzo[d]oxazol-5-yl)methyl)azetidine-3-carboxylic acid] belongs no more than 10 nM.
In the case of `Cc1c(-c2nc3cc(CN4CC[C@@](C)(C(=O)O)C4)cc(C#N)c3o2)cccc1-c1cccc(-c2nc3c(s2)CN(C(=O)CN2CC[C@H](O)C2)C3)c1C` [Example 221, (R)-1-((7-cyano-2-(3′-(5-(2-((S)-3-hydroxypyrrolidin-1-yl)acetyl)-5,6-dihydro-4H-pyrrolo[3,4-d]thiazol-2-yl)-2,2′-dimethylbiphenyl-3-yl)benzo[d]oxazol-5-yl)methyl)-3-methylpyrrolidine-3-carboxylic acid] it was no more than 10 nM; in that of `Cc1c(-c2nc3cc(CN4CC[C@@H](C(=O)O)C4)cc(C#N)c3o2)cccc1-c1cccc(-n2cc3c(n2)CN(C(C)C)C3)c1Cl` [Example 56, (R)-1-((2-(2′-chloro-3′-(5-isopropyl-5,6-dihydropyrrolo[3,4-c]pyrazol-2(4H)-yl)-2-methylbiphenyl-3-yl)-7-cyanobenzo[d]oxazol-5-yl)methyl)pyrrolidine-3-carboxylic acid], no more than 10 nM; in that of `Cc1c(Nc2nccc3cc(CNCCO)cnc23)cccc1-c1cccc(-c2nc3cc(CN4CCCC[C@H]4C(=O)O)cc(Cl)c3o2)c1C` [Example 3, (S)-1-((7-chloro-2-(3′-((3-(((2-hydroxyethyl)amino)methyl)-1,7-naphthyridin-8-yl)amino)-2,2′-dimethyl-[1,1′-biphenyl]-3-yl)benzo[d]oxazol-5-yl)methyl)piperidine-2-carboxylic acid], no more than 10 nM.
On to `Cc1c(Nc2nccc3cc(CN[C@H](C)CO)cnc23)cccc1-c1cccc(-c2nc3cc(CN4CC[C@@H](C(=O)O)C4)cc(C#N)c3o2)c1C` [Example 258, (R)-1-((7-cyano-2-(3′-(3-(((R)-1-hydroxypropan-2-ylamino)methyl)-1,7-naphthyridin-8-ylamino)-2,2′-dimethylbiphenyl-3-yl)benzo[d]oxazol-5-yl)methyl)pyrrolidine-3-carboxylic acid], for which the IC50 was no more than 10 nM.
In the case of `Cc1c(-c2nc3cc(CN4CC[C@@H](O)C4)cc(C#N)c3o2)cccc1-c1cccc(NC(=O)c2nc3c(n2C)CCN(CC2CCC(C)(C(=O)O)CC2)C3)c1Cl` (single isomer, unassigned; peak 2) [Example 269] it was no more than 10 nM; in that of `CC(=O)NCCNCc1cc(C#N)c2oc(-c3cccc(-c4cccc(-c5nc6c(s5)CN(C(C)C)CC6)c4C)c3C)nc2c1` [Example 118, N-(2-(((7-cyano-2-(3′-(5-isopropyl-4,5,6,7-tetrahydrothiazolo[5,4-c]pyridin-2-yl)-2,2′-dimethyl-[1,1′-biphenyl]-3-yl)benzo[d]oxazol-5-yl)methyl)amino)ethyl)acetamide], no more than 10 nM; in that of `CNC(=O)[C@@H]1CCN(Cc2cc(C#N)c3oc(-c4cccc(-c5cccc(-n6cc7c(n6)CN(C(C)C)CC7)c5Cl)c4C)nc3c2)C1` [Example 103, (R)-1-((2-(2′-chloro-3′-(6-isopropyl-4,5,6,7-tetrahydro-2H-pyrazolo[3,4-c]pyridin-2-yl)-2-methylbiphenyl-3-yl)-7-cyanobenzo[d]oxazol-5-yl)methyl)-N-methylpyrrolidine-3-carboxamide], no more than 10 nM.
To `Cc1c(Nc2nccc3cc(CN4CC[C@@H](O)C4)cnc23)cccc1-c1cccc(-c2nc3cc(CN[C@H]4CC[C@@H](C(=O)O)C4)cc(C#N)c3o2)c1C` [Example 169, (1R,3S)-3-((7-cyano-2-(3′-(3-(((R)-3-hydroxypyrrolidin-1-yl)methyl)-1,7-naphthyridin-8-ylamino)-2,2′-dimethylbiphenyl-3-yl)benzo[d]oxazol-5-yl)methylamino)cyclopentanecarboxylic acid] belongs no more than 10 nM; to `Cc1c(-c2nc3cc(CN4CC[C@@](C)(C(=O)O)C4)cc(C#N)c3o2)cccc1-c1cccc(-c2nc3c(s2)CN(C(=O)CN(C)CC2CC2)C3)c1C` [Example 219, (R)-1-((7-cyano-2-(3′-(5-(2-((cyclopropylmethyl) (methyl)amino)acetyl)-5,6-dihydro-4H-pyrrolo[3,4-d]thiazol-2-yl)-2,2′-dimethylbiphenyl-3-yl)benzo[d]oxazol-5-yl)methyl)-3-methylpyrrolidine-3-carboxylic acid], no more than 10 nM; to `Cc1c(-c2nc3cc(CN4CC[C@@H](O)C4)cc(C#N)c3o2)cccc1-c1cccc(NC(=O)c2nc3c(n2C)CCN(C[C@H]2CC[C@@H](C(=O)O)CC2)C3)c1Cl` [Example 266, cis-4-((2-(2-chloro-3′-(7-cyano-5-(((R)-3-hydroxypyrrolidin-1-yl)methyl)benzo[d]oxazol-2-yl)-2′-methylbiphenyl-3-ylcarbamoyl)-1-methyl-6,7-dihydro-1H-imidazo[4,5-c]pyridin-5(4H)-yl)methyl)cyclohexane carboxylic acid], no more than 10 nM.
In the case of `Cc1c(-c2nc3cc(CN4CC[C@@](C)(C(=O)O)C4)cc(C#N)c3o2)cccc1-c1cccc(-c2nc3c(s2)CN(C(=O)CN(C)CCO)C3)c1C` [Example 224, (R)-1-((7-cyano-2-(3′-(5-(2-((2-hydroxyethyl) (methyl)amino)acetyl)-5,6-dihydro-4H-pyrrolo[3,4-d]thiazol-2-yl)-2,2′-dimethylbiphenyl-3-yl)benzo[d]oxazol-5-yl)methyl)-3-methylpyrrolidine-3-carboxylic acid] it was no more than 10 nM.
In the case of `Cc1c(Nc2nccc3cc(CN4CC[C@H](O)C4)cnc23)cccc1-c1cccc(-c2nc3cc(CN4CC[C@@H](C(=O)O)C4)cc(Cl)c3o2)c1C` [Example 16, (R)-1-((7-chloro-2-(3′-(3-(((S)-3-hydroxypyrrolidin-1-yl)methyl)-1,7-naphthyridin-8-ylamino)-2,2′-dimethylbiphenyl-3-yl)benzo[d]oxazol-5-yl)methyl)pyrrolidine-3-carboxylic acid], the IC50 is no more than 10 nM.
To `Cc1c(-c2nc3cc(CN4CC[C@@H](C(=O)O)C4)cc(C#N)c3o2)cccc1-c1cccc(NC(=O)c2nc3c(n2C)CCN(C)C3)c1Cl` [Example 53, (R)-1-((2-(2′-chloro-3′-(1,5-dimethyl-4,5,6,7-tetrahydro-1H-imidazo[4,5-c]pyridine-2-carboxamido)-2-methylbiphenyl-3-yl)-7-cyanobenzo[d]oxazol-5-yl)methyl)pyrrolidine-3-carboxylic acid] belongs no more than 10 nM; to `Cc1c(-c2nc3c(o2)CN(C(=O)CN(C)C)C3)cccc1-c1cccc(-c2nc3cc(CN4CC[C@@](C)(C(=O)O)C4)cc(C#N)c3o2)c1C` [Example 245, (R)-1-((7-cyano-2-(3′-(5-(dimethylglycyl)-5,6-dihydro-4H-pyrrolo[3,4-d]oxazol-2-yl)-2,2′-dimethyl[1,1′-biphenyl]-3-yl)benzo[d]oxazol-5-yl)methyl)-3-methylpyrrolidine-3-carboxylic acid], no more than 10 nM; to `Cc1c(-c2nc3cc(CN4CC[C@H](C(=O)O)C4)cc(C#N)c3o2)cccc1-c1cccc(-n2cc3c(n2)CCN(C)C3)c1Cl` [Example 54, (S)-1-((2-(2′-chloro-2-methyl-3′-(5-methyl-4,5,6,7-tetrahydro-2H-pyrazolo[4,3-c]pyridin-2-yl)biphenyl-3-yl)-7-cyanobenzo[d]oxazol-5-yl)methyl)pyrrolidine-3-carboxylic acid], no more than 10 nM.
To `Cc1c(-c2nc3cc(CN4CC[C@H](C(=O)O)C4)cc(Cl)c3o2)cccc1-c1cccc(Nc2nccc3cc(CN4CC[C@H](O)C4)cnc23)c1Cl` [Example 32, (S)-1-((7-chloro-2-(2′-chloro-3′-(3-(((S)-3-hydroxypyrrolidin-1-yl)methyl)-1,7-naphthyridin-8-ylamino)-2-methylbiphenyl-3-yl)benzo[d]oxazol-5-yl)methyl)pyrrolidine-3-carboxylic acid] belongs no more than 10 nM.
As for `Cc1c(-c2nc3cc(CN4CCCC[C@H]4C(=O)O)cc(Cl)c3o2)cccc1-c1cccc(NC(=O)c2nc3c(s2)CN(C)CC3)c1Cl` [Example 8, (S)-1-((7-chloro-2-(2′-chloro-2-methyl-3′-(5-methyl-4,5,6,7-tetrahydrothiazolo[5,4-c]pyridine-2-carboxamido)-[1,1′-biphenyl]-3-yl)benzo[d]oxazol-5-yl)methyl)piperidine-2-carboxylic acid], the IC50 is no more than 10 nM.
To `Cc1c(-c2nc3cc(CN4CC[C@@H](O)C4)cc(C#N)c3o2)cccc1-c1cccc(NC(=O)c2nc3c(n2C)CCN(CC24CC(C(=O)O)(C2)C4)C3)c1Cl` [Example 262, (R)-3-((2-(2-chloro-3′-(7-cyano-5-((3-hydroxypyrrolidin-1-yl)methyl)benzo[d]oxazol-2-yl)-2′-methylbiphenyl-3-yl-carbamoyl)-1-methyl-6,7-dihydro-1H-imidazo[4,5-c]pyridin-5(4H)-yl)methyl)bicyclo[1.1.1]-pentane-1-carboxylic acid] belongs no more than 10 nM.

Values taken from patent US10308644B2, “Heterocyclic compounds as immunomodulators” (Incyte Corporation, priority 2016, dated 2019).
